Columns and labels:
Tolloid-like protein 2 = molecular target: T1, Tolloid-like protein 2 (Homo sapiens, UniProt Q9Y6L7); assay: Inhibition of C-terminal Avi-6x-His epitope tagged and N-terminal human RAGE signal sequence tagged recombinant human TLL2 (26 to 1015 amino acids) expressed in CHOE1A cells incubated for 60 mins with promyostatin peptide substrate by FRET based assay; type: cell-based
T1 sequence (Q9Y6L7 whole entry): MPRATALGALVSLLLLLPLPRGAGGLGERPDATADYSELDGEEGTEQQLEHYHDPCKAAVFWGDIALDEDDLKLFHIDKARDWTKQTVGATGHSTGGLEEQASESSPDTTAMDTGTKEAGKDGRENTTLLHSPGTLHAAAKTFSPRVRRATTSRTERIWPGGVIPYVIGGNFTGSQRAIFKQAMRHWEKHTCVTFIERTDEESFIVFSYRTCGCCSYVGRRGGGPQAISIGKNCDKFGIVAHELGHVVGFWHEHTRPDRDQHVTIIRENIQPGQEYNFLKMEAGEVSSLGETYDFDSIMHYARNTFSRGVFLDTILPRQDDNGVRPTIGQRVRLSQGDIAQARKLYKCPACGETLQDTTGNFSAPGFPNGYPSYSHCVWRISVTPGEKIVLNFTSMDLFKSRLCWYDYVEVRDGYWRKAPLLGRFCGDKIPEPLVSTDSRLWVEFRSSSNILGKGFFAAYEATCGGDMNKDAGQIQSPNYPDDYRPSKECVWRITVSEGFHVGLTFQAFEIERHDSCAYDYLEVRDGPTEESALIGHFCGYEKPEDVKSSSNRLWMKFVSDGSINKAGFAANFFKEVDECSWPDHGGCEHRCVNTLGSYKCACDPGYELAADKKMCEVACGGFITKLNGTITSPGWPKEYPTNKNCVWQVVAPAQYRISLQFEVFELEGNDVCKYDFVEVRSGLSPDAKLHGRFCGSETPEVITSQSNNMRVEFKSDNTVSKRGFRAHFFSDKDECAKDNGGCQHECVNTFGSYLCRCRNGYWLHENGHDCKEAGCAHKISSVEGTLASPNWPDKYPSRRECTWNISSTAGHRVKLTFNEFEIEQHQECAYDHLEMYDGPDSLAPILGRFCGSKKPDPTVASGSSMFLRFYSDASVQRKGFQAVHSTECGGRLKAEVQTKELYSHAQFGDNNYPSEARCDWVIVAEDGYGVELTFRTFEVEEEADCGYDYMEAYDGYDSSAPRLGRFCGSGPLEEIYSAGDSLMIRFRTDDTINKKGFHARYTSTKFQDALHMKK

[1] = Reduction in PICP levels in human cardiac fibroblasts incubated for 24 to 48 hrs by ELISA; type: functional
Summary of the method: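 Human cardiac fibroblasts no older than passage 6 were seeded at 10,000 to 15,000 cells per well in 96-well plates and, one day later, exposed for 24 to 48 hr at 37° C to treatment in ficoll crowding EMEM with 100 μM ascorbic acid and less than 0.3% DMSO. IC50 was determined in GraphPad Prism from a log(inhibitor)-response fit of procollagen I C-terminal propeptide levels in the medium, measured by Quidel ELISA and expressed relative to untreated controls.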

Tolloid-like protein 1 = Tolloid-like protein 1 (Homo sapiens, UniProt O43897, I156V/N221S/V284A); assay: Inhibition of recombinant human TLL1 I156V/N221S/V284A mutant expressed in CHOE1A cells pre-incubated for 10 mins before promyostatin peptide substrate addition and measured after 60 mins by FRET based assay; type: cell-based
[2] = Reduction in mature collagen deposition levels in human cardiac fibroblasts incubated for 24 to 48 hrs by immunostaining based assay; type: functional
Summary of the method: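 Methanol fixation at −20° C for 10 min followed a 24 to 48 hr treatment at 37° C of human cardiac fibroblasts in 96-well plates, in ficoll crowding EMEM with 100 μM ascorbic acid and DMSO under 0.3%. Imaging on an Operetta system captured anti-mature collagen I staining, detected with an Alexa647 secondary antibody, alongside Hoechst-stained nuclei. In GraphPad Prism, an IC50 was fitted to collagen intensity normalised to nuclei count per field.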

[3] = molecular target: T2, Bone morphogenetic protein 1 (Homo sapiens, UniProt P13497); assay: Inhibition of C-terminal FLAG-6x-His epitope tagged and N-terminal human RAGE signal sequence tagged human BMP1 (23 to 721 amino acids) expressed in CHO-E1 cells pre-incubated for 10 mins before promyostatin peptide substrate addition and measured after 30 mins using 50 nM BMP1 by FRET based assay; type: cell-based
T2 sequence (P13497 whole entry): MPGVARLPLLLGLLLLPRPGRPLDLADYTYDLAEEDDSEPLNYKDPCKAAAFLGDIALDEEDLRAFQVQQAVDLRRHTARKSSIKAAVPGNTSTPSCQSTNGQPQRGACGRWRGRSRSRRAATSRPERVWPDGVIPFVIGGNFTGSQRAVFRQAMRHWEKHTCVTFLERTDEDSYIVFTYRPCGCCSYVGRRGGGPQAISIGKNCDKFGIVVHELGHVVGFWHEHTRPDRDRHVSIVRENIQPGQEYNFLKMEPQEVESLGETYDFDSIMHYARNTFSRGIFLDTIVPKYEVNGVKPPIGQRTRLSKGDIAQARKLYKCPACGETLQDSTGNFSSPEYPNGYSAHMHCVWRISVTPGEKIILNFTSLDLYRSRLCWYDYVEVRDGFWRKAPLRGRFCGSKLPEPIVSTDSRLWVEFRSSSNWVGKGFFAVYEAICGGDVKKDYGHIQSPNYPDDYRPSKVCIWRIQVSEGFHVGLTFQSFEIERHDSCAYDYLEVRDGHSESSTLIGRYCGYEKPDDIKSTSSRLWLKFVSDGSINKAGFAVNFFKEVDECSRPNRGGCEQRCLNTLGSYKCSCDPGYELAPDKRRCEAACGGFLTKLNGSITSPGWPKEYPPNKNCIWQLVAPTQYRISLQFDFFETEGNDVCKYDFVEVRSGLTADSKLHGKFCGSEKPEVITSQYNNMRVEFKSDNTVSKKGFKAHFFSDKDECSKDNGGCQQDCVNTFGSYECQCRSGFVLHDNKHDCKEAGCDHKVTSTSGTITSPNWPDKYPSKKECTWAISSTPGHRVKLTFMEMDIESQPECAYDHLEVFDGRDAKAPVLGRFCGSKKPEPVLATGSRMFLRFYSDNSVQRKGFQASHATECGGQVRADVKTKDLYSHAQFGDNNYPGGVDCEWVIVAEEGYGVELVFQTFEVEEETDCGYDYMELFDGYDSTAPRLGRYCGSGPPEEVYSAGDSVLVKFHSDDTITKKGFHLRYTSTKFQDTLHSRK

[4] = molecular target: T2, Bone morphogenetic protein 1; assay: Inhibition of C-terminal FLAG-6x-His epitope tagged and N-terminal human RAGE signal sequence tagged human BMP1 (23 to 721 amino acids) expressed in CHO-E1 cells pre-incubated for 10 mins before promyostatin peptide substrate addition and measured after 60 mins using 0.5 nM BMP1 by FRET based assay; type: cell-based

Chain of Tolloid-like protein 1 (O43897 148-1013 I156V/N221S/V284A limits assumed): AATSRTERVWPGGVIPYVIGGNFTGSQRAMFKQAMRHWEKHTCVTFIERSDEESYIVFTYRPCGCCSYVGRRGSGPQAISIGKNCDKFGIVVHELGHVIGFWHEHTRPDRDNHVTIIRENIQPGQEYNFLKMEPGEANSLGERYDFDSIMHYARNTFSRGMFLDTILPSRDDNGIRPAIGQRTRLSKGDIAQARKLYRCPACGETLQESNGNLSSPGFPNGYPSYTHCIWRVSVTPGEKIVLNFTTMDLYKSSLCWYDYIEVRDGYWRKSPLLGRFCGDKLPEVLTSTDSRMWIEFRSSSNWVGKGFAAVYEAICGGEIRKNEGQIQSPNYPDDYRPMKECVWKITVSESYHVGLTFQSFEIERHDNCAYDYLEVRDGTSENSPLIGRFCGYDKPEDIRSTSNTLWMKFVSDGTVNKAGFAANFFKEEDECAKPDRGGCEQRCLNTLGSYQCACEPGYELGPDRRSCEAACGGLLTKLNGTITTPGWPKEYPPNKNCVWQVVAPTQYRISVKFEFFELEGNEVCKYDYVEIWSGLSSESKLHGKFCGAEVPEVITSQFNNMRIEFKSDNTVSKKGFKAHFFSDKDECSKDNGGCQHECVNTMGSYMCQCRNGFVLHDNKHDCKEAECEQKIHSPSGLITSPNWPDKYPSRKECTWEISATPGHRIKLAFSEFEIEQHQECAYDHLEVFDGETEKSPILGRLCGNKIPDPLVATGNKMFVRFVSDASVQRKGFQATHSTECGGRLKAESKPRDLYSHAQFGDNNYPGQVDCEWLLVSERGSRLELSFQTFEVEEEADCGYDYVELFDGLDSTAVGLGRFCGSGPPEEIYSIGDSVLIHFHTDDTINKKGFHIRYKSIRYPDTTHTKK

Structure (SMILES)	IC50 (Tolloid-like protein 2)	IC50 [1]	IC50 (Tolloid-like protein 1)	IC50 [2]	IC50 [3]	IC50 [4]
CCCCC[C@@H](C(=O)NCNC(=O)c1ccc(-c2cc(OCC)cc(C(=O)N[C@@H](CC(=O)O)C(=O)O)c2)o1)[C@@H](CC)N(O)C=O	< 794 nM	< 3.98 µM	< 398 nM	< 1000 nM	< 200 nM	< 126 nM
CCCCC[C@@H](C(=O)NCNC(=O)c1ccc(-c2ccccc2)o1)[C@@H](CC)N(O)C=O	< 794 nM	< 3.98 µM	< 398 nM	< 1000 nM	< 200 nM	< 126 nM
CCCCC[C@@H](C(=O)NCNC(=O)c1ccc(-c2cccc(C3(C(=O)O)CC3)c2)o1)[C@@H](CC)N(O)C=O	< 794 nM	< 3.98 µM	< 398 nM	< 1000 nM	< 200 nM	< 126 nM
CCOc1cc(C(=O)N(CC(=O)O)CC(=O)O)cc(-c2ccc(C(=O)NCNC(=O)[C@H](CCc3ccc(F)cc3F)[C@@H](CC)N(O)C=O)o2)c1	< 794 nM	< 3.98 µM	< 398 nM	< 1000 nM	< 200 nM	< 126 nM
CCCCC[C@@H](C(=O)NCNC(=O)c1ccc(-c2ccc(CC(=O)N[C@@H](CC(=O)O)C(=O)O)c(OCC)c2)o1)[C@@H](CC)N(O)C=O	< 794 nM	< 3.98 µM	< 398 nM	< 1000 nM	< 200 nM	< 126 nM
CCCCC[C@@H](C(=O)NCNC(=O)c1ccc(-c2cc(OCC)c(F)c(C(=O)O)c2)o1)[C@@H](CC)N(O)C=O	< 794 nM	< 3.98 µM	< 398 nM	< 1000 nM	< 200 nM	< 126 nM
CCCCC[C@@H](C(=O)NCNC(=O)c1ccc(-c2ccc(C(=O)N[C@H](CC(=O)O)C(=O)O)c(OCC)c2)o1)[C@@H](CC)N(O)C=O	< 794 nM	< 3.98 µM	< 398 nM	< 1000 nM	< 200 nM	< 126 nM
CCCCC[C@@H](C(=O)NCNC(=O)c1ccc(-c2cc(OCCC)cc(C(=O)O)c2)o1)[C@@H](CC)N(O)C=O	< 794 nM	< 3.98 µM	< 398 nM	< 1000 nM	< 200 nM	< 126 nM
CCOc1cc(-c2ccc(C(=O)NCNC(=O)[C@H](CCc3ccccc3)[C@@H](CC)N(O)C=O)o2)ccc1C(=O)N[C@@H](CC(=O)O)C(=O)O	< 794 nM	< 3.98 µM	< 398 nM	< 1000 nM	< 200 nM	< 126 nM
CCCCC[C@H](CN(O)C=O)C(=O)NCNC(=O)c1ccc(-c2ccccc2)o1	< 794 nM	< 3.98 µM	< 398 nM	< 1000 nM	< 200 nM	< 126 nM
CCCCC[C@@H](C(=O)NCNC(=O)c1ccc(-c2cc(O)cc(C(=O)O)c2)o1)[C@@H](CC)N(O)C=O	< 794 nM	< 3.98 µM	< 398 nM	< 1000 nM	< 200 nM	< 126 nM
